This is an account of results in publication PMC3050433, “The effects of maribavir on the autophosphorylation of ganciclovir resistant mutants of the cytomegalovirus UL97 protein” (Herpesviridae, 2010).

For orientation: pIC50 means the IC50 on a negative log10 scale, so that one unit is a factor of ten.

One assay has as its target T1, UL97 L397R (Human cytomegalovirus, UniProt Q68101, L397R).
T1 construct: PCR reaction to generate the full length UL97; honey bee melittin secretion signal (N); expressed in transfected cells; host or cells: Sf21 insect cells infected with recombinant baculovirus
T1 sequence (Q68101 1-707 L397R): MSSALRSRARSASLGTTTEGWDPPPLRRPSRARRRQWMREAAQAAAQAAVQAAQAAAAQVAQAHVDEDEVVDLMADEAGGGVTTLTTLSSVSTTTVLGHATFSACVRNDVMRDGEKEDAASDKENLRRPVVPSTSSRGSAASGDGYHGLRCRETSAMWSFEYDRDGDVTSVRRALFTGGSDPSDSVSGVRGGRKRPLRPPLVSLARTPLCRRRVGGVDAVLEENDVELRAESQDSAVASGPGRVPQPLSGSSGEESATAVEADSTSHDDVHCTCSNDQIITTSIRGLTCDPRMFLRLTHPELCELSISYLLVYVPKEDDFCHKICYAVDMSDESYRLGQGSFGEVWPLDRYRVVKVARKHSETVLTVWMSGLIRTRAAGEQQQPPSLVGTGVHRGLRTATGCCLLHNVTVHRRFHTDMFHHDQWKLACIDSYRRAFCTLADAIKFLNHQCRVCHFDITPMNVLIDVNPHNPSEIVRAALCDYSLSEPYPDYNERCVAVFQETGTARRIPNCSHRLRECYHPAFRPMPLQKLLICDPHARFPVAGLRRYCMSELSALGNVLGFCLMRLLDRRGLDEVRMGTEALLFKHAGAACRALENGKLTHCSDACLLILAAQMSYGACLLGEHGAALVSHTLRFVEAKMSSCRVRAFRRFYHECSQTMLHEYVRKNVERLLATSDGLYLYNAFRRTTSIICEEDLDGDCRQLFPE
Briefly: UL97 autophosphorylation protein kinase assay, L397R. The class given is biochemical. To be noted: L397R mutant. How it is done:
(§1) Analysis of the autophosphorylation of wild type and mutant UL97 protein species was performed by a standard protein kinase assay as previously described (46). Briefly, purified protein was added to 2× protein kinase buffer (100 mM Tris HCl, pH9.0, 20 mM MgCl2, 10 μM ATP, 4 mM DTT, 2 M NaCl) and 370 KBq [γ^32P] ATP (Amersham), made up to 20 μl with SDW and incubated at 37°C. The reactions were terminated by the addition of 2× SDS sample buffer followed by boiling for 3 minutes. The amount of radiolabelled phosphate incorporated by autophosphorylation was analysed by SDS-PAGE and measured using the Biorad Mulitanalyst. The protein kinase assays were initially performed for 2 to 60 minutes to determine the maximum rate of phosphate incorporation, all assays were then performed at the maximum rate which equated to 5 minutes.
(§2) Enzyme kinetic analysis was performed on the purified wild type and mutant UL97 protein species as above using increasing concentrations of ATP (2 μM to 20 μM). The amount of incorporated radiolabelled phosphate was plotted against the concentration of ATP in a Lineweaver Burke plot to determine the Km for ATP for each UL97 species. […]

The target of a further assay is T2, UL97 H662L (Human cytomegalovirus, UniProt Q68101, H662L).
T2 construct: PCR reaction to generate the full length UL97; honey bee melittin secretion signal (N); made in house; host or cells: Sf21 insect cells, recombinant baculovirus (pMelBac C)
T2 sequence (Q68101 1-707 H662L): T1 sequence (Q68101 1-707 L397R) with R397L, H662L
Briefly: UL97 autophosphorylation protein kinase assay, H662L. It counts as biochemical. To be noted: H662L mutant. How it is done:
as §1, §2

Assay [1] deals with wild type and mutant UL97 proteins. Briefly: UL97 autophosphorylation protein kinase assay, all UL97 species pooled. It counts as biochemical, human cytomegalovirus. To be noted: maribavir 0.5 μM; every form of UL97 investigated (mutant and wild type). How it is done: as §1, §2
In the next assay the test system is HCMV. On the set-up: method as in PMID 12121906. The conditions noted are these: HCMV replication in vitro; cited from earlier work.
For assay [2], the system named is HCMV strains resistant to ganciclovir, foscarnet and cidofovir. On the set-up: method as in PMID 16962820. To be noted: cited from earlier work.

Each structure is given as a SMILES string. Substitutions are numbered along the chain they refer to. pIC50: −log10 of the molar value.

Consider `CC(C)Nc1nc2cc(Cl)c(Cl)cc2n1[C@H]1O[C@@H](CO)[C@H](O)[C@@H]1O` [maribavir, 5,6-dichloro-2-(isopropylamino)-1-beta-L-ribofuranosyl-1H-benzimidazole], for which the reduction in autophosphorylation entry on UL97 L397R (drug concentrations increased to 100 μM) is reported as “did not exhibit a reduction in autophosphorylation”. Besides, at UL97 L397R (maribavir 0.5 μM), the effect on autophosphorylation entry is “unaffected”. The pIC50 on UL97 H662L is 7.40. The “autophosphorylation as % of total phosphorylation of the wild type UL97 protein” value in assay [1] is on record as “below 10%”. Further, the “IC50 fold lower than that observed for GCV” value with HCMV is listed as 4-to 10 fold. The “activity against resistant strains” value in assay [2] was “active”.
